Test results as given in patent US5585491A, “Antibacterial agents” (Otsuka Pharmaceutical Co., Ltd., priority 1995, dated 1996).
Values after ≈ are worked out from the molar mass of the structure shown. Like-named read-outs stand apart in the source and are kept apart here.

Columns and labels:
Experiment in all cases: In vitro antibacterial activity, microtitration dilution method (MIC)
Type in all cases: cell-based
[1] = system: Klebsiella pneumoniae MGH-2; conditions: MGH2; Klebsiella pneumoniae MGH-2, microtitration dilution; read-out: Minimal Inhibitory Concentration MIC
Text: (§1) Agents & Chemoth., 6, 124 (1974), which is incorporated herein by reference.

[2] = system: Streptococcus faecalis MGH-2; conditions: Enterococcus faecalis
Text: as §1

[3] = system: Streptococcus pneumoniae SV-1
Text: as §1

[4] = system: Staphylococcus aureus UC-76; conditions: UC76; Staphylococcus aureus UC-76, microtitration dilution; read-out: Minimal Inhibitory Concentration MIC
Text: as §1

[5] = system: Pseudomonas aeruginosa UI-18
Text: as §1

[6] = system: Staphylococcus aureus H 228; conditions: H228; Staphylococcus aureus H 228, microtitration dilution; read-out: Minimal Inhibitory Concentration MIC
Text: (§2) The compounds of the invention display antibacterial activity when tested by the microtitration dilution method as described in Heifetz, et al, Antimicr. Agents & Chemoth., 6, 124 (1974), which is incorporated herein by reference. By use of this method, the followed minimum inhibitory concentration values (MICs in μg/mL) were obtained for representative compounds of the invention.

[7] = system: Providencia rettgeri M 1771; conditions: M1771; Providencia rettgeri M 1771, microtitration dilution; read-out: Minimal Inhibitory Concentration MIC
Text: as §2

[8] = system: Escherichia coli Vogel; conditions: Escherichia coli Vogel, microtitration dilution; read-out: Minimal Inhibitory Concentration MIC
Text: as §2

[9] = system: Enterobacter cloacae MA 2646
Text: as §2

[10] = system: Streptococcus pyogenes C-203; conditions: C203; Streptococcus pyogenes C-203, microtitration dilution; read-out: Minimal Inhibitory Concentration MIC
Text: as §2

[11] = system: Proteus rettgeri M 1771; conditions: Providencia rettgeri
Text: as §1

[12] = MGH2, Streptococcus faecalis MGH-2, microtitration dilution, read-out: Minimal Inhibitory Concentration MIC
[13] = SV1, Streptococcus pneumoniae SV-1, microtitration dilution, read-out: Minimal Inhibitory Concentration MIC
[14] = UI18, Pseudomonas aeruginosa UI-18, microtitration dilution, read-out: Minimal Inhibitory Concentration MIC
[15] = MA2646, Enterobacter cloacae MA 2646, microtitration dilution, read-out: Minimal Inhibitory Concentration MIC
[16] = Pseudomonas aeruginosa, UI18, read-out: Minimal Inhibitory Concentration MIC
[17] = M1771, Proteus rettgeri M 1771, microtitration dilution, read-out: Minimal Inhibitory Concentration MIC
[18] = MGH2, read-out: Minimal Inhibitory Concentration MIC
[19] = Enterobacter cloacae, MA2646, read-out: Minimal Inhibitory Concentration MIC

Cc1c(F)c(N2CCNCC2)cc2c1c(=O)c(C(=O)O)cn2C1CC1 [Ex. 6, 1-Cyclopropyl-6-fluoro-1,4-dihydro-5-methyl-4-oxo-7-(1-piperazinyl)-3-quinolinecarboxylic acid]
MIC [1]: 0.05 µg/mL (≈ 0.145 µM)
MIC [2, 12]: 0.05 µg/mL (≈ 0.145 µM)
MIC [3, 13]: 0.05 µg/mL (≈ 0.145 µM)
MIC [4]: 0.025 µg/mL (≈ 0.0724 µM)
MIC [5, 14]: 0.2 µg/mL (≈ 0.579 µM)
MIC [6]: 0.1 µg/mL (≈ 0.29 µM)
MIC [7]: 0.1 µg/mL (≈ 0.29 µM)
MIC [8]: 0.013 µg/mL (≈ 0.0376 µM)
MIC [9, 15]: 0.013 µg/mL (≈ 0.0376 µM)
MIC [10]: 0.1 µg/mL (≈ 0.29 µM)

CCNCC1CCN(c2c(F)c(C)c3c(=O)c(C(=O)O)cn(C4CC4)c3c2F)C1 (centres unmarked) [Ex. 3, 1-Cyclopropyl-7-[3-[(ethylamino)methyl]-1-pyrrolidinyl]-6,8-difluoro-1,4-dihydro-5-methyl-4-oxo-3-quinolinecarboxylic acid]
MIC [1]: 0.1 µg/mL (≈ 0.247 µM)
MIC [2, 12]: 0.025 µg/mL (≈ 0.0617 µM)
MIC [3, 13]: 0.003 µg/mL (≈ 0.0074 µM)
MIC [4]: 0.003 µg/mL (≈ 0.0074 µM)
MIC [5, 14]: 0.8 µg/mL (≈ 1.97 µM)
MIC [6]: 0.013 µg/mL (≈ 0.0321 µM)
MIC [7]: 0.2 µg/mL (≈ 0.493 µM)
MIC [8]: 0.05 µg/mL (≈ 0.123 µM)
MIC [9, 15]: 0.1 µg/mL (≈ 0.247 µM)
MIC [10]: 0.006 µg/mL (≈ 0.0148 µM)

Cc1c(F)c(N2CCNC(C)C2)c(F)c2c1c(=O)c(C(=O)O)cn2C1CC1 (centres unmarked) [Ex. 5, 1-Cyclopropyl-6,8-difluoro-1,4-dihydro-5-methyl-7-[3-methyl-1-piperazinyl]-4-oxo-3-quinolinecarboxylic acid]
MIC [1]: 0.05 µg/mL (≈ 0.132 µM)
MIC [2, 12]: 0.1 µg/mL (≈ 0.265 µM)
MIC [3, 13]: 0.025 µg/mL (≈ 0.0662 µM)
MIC [4]: 0.013 µg/mL (≈ 0.0344 µM)
MIC [5, 16]: 0.4 µg/mL (≈ 1.06 µM)
MIC [6]: 0.025 µg/mL (≈ 0.0662 µM)
MIC [7]: 0.1 µg/mL (≈ 0.265 µM)
MIC [8]: 0.05 µg/mL (≈ 0.132 µM)
MIC [9, 15]: 0.025 µg/mL (≈ 0.0662 µM)
MIC [10]: 0.006 µg/mL (≈ 0.0159 µM)

CCn1cc(C(=O)O)c(=O)c2c(C)c(F)c(N3CCC(N)C3)c(F)c21 (centres unmarked) [Ex. 13, 7-(3-Amino-1-pyrrolidinyl)-1-ethyl-6,8-difluoro-1,4-dihydro-5-methyl-4-oxo-3-quinolinecarboxylic acid]
MIC [11, 17]: 0.4 µg/mL (≈ 1.14 µM)
MIC [1]: 0.2 µg/mL (≈ 0.569 µM)
MIC [2, 18]: 0.8 µg/mL (≈ 2.28 µM)
MIC ([3]; Streptococcus pneumoniae, SV1, read-out: Minimal Inhibitory Concentration MIC): 1.6 µg/mL (≈ 4.55 µM)
MIC [4]: 0.1 µg/mL (≈ 0.285 µM)
MIC [5, 14]: 1.6 µg/mL (≈ 4.55 µM)
MIC [6]: 0.4 µg/mL (≈ 1.14 µM)
MIC [8]: 0.05 µg/mL (≈ 0.142 µM)
MIC [9, 19]: 0.05 µg/mL (≈ 0.142 µM)
MIC [10]: 3.1 µg/mL (≈ 8.82 µM)

Cc1c(F)c(N2CCNCC2)c(Cl)c2c1c(=O)c(C(=O)O)cn2C1CC1 [Ex. 10, 8-Chloro-1-cyclopropyl-6-fluoro-1,4-dihydro-5-methyl-4-oxo-7-(1-piperazinyl)-3-quinolinecarboxylic acid]
MIC [11, 17]: 0.2 µg/mL (≈ 0.527 µM)
MIC [1]: 0.1 µg/mL (≈ 0.263 µM)
MIC [2, 12]: 0.2 µg/mL (≈ 0.527 µM)
MIC [3, 13]: 0.1 µg/mL (≈ 0.263 µM)
MIC [4]: 0.025 µg/mL (≈ 0.0658 µM)
MIC [5, 14]: 0.2 µg/mL (≈ 0.527 µM)
MIC [6]: 0.05 µg/mL (≈ 0.132 µM)
MIC [8]: 0.025 µg/mL (≈ 0.0658 µM)
MIC [9, 19]: 0.05 µg/mL (≈ 0.132 µM)
MIC [10]: 0.2 µg/mL (≈ 0.527 µM)

Cc1c(F)c(N2CC(C)NC(C)C2)cc2c1c(=O)c(C(=O)O)cn2-c1ccc(F)cc1F (centres unmarked) [Ex. 17b, 6-Fluoro-1-(2,4-difluorophenyl)-1,4-dihydro-5-methyl-7-(3,5-dimethyl-1-piperazinyl)-4-oxo-3-quinolinecarboxylic acid]
MIC [11, 17]: 1.6 µg/mL (≈ 3.59 µM)
MIC [1]: 0.8 µg/mL (≈ 1.8 µM)
MIC [2, 18]: 0.8 µg/mL (≈ 1.8 µM)
MIC [3, 13]: 0.05 µg/mL (≈ 0.112 µM)
MIC [4]: 0.05 µg/mL (≈ 0.112 µM)
MIC [5, 14]: 1.6 µg/mL (≈ 3.59 µM)
MIC [6]: 0.1 µg/mL (≈ 0.224 µM)
MIC [8]: 0.2 µg/mL (≈ 0.449 µM)
MIC [9, 15]: 0.4 µg/mL (≈ 0.898 µM)
MIC [10]: 0.1 µg/mL (≈ 0.224 µM)

Cc1c(F)c(N2CCC(N)C2)nc2c1c(=O)c(C(=O)O)cn2-c1ccc(F)cc1F (centres unmarked) [Ex. 22, 7-(3-Amino-1-pyrrolidinyl)-1-(2,4-difluorophenyl)-6-fluoro-1,4-dihydro-5-methyl-4-oxo-1,8-naphthyridine-3-carboxylic acid]
MIC ([11]; M1771, read-out: Minimal Inhibitory Concentration MIC): 0.1 µg/mL (≈ 0.239 µM)
MIC [1]: 0.05 µg/mL (≈ 0.12 µM)
MIC [2, 12]: 0.1 µg/mL (≈ 0.239 µM)
MIC [3, 13]: 0.05 µg/mL (≈ 0.12 µM)
MIC [4]: 0.013 µg/mL (≈ 0.0311 µM)
MIC [5, 14]: 0.2 µg/mL (≈ 0.478 µM)
MIC [6]: 0.05 µg/mL (≈ 0.12 µM)
MIC [8]: 0.05 µg/mL (≈ 0.12 µM)
MIC [9, 19]: 0.05 µg/mL (≈ 0.12 µM)
MIC [10]: 0.05 µg/mL (≈ 0.12 µM)

Cc1c(F)c(N2CCNCC2)nc2c1c(=O)c(C(=O)O)cn2C1CC1 [Ex. 19, 1-Cyclopropyl-6-fluoro-1,4-dihydro-5-methyl-4-oxo-7-(1-piperazinyl)-1,8-naphthyridine-3-carboxylic acid]
MIC [11, 17]: 0.2 µg/mL (≈ 0.577 µM)
MIC [1]: 0.05 µg/mL (≈ 0.144 µM)
MIC [2, 12]: 0.2 µg/mL (≈ 0.577 µM)
MIC [3, 13]: 0.1 µg/mL (≈ 0.289 µM)
MIC [4]: 0.1 µg/mL (≈ 0.289 µM)
MIC [5, 16]: 0.4 µg/mL (≈ 1.15 µM)
MIC [6]: 0.2 µg/mL (≈ 0.577 µM)
MIC [8]: 0.013 µg/mL (≈ 0.0375 µM)
MIC [9, 15]: 0.025 µg/mL (≈ 0.0722 µM)
MIC [10]: 0.4 µg/mL (≈ 1.15 µM)
